In BindingDB's records for doi:10.3109/14756366.2012.715287 (Atatürk University, 2013) one finds IC50 data, which are given here for seven compounds.

Sequence of Serum paraoxonase/arylesterase 1 (P27169 whole entry): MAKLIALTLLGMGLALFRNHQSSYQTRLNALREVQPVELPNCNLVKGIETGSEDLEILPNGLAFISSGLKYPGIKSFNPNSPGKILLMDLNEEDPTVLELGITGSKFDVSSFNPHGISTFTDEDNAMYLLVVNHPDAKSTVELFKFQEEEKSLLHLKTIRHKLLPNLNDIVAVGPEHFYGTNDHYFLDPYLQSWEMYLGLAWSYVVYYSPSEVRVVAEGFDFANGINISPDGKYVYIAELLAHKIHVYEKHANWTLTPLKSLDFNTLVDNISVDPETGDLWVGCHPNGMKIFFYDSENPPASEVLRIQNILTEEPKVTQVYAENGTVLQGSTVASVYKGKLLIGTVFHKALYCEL

The target in this test is Serum paraoxonase/arylesterase 1 (Homo sapiens, UniProt P27169). In words: Enzyme Activity Assay. The protocol:
The enzyme assay was based on the estimation of p-nitrophenol at 412 nm. Paraoxonase activity was determined spectrophotometrically using the same procedure in our previous studies [Ekinci et al., Eur. J. Pharmacol., 617:84-89]. One enzyme unit was defined as the amount of enzyme that catalyzes the hydrolysis of 1 μmol of substrate at 25°C.
Turning to `COc1cc(C(=O)c2c(Br)c(Br)cc(OC)c2OC)cc(Br)c1OC` [(3-Bromo-4,5-dimethoxyphenyl)(2,3-dibromo-5,6-dimethoxyphenyl)methanone (9)], half-maximal inhibition (IC50) was put at 125 µM.

The compound `COc1ccc(C(=O)c2c(Br)c(Br)cc(OC)c2OC)cc1OC` [(2,3-dibromo-5,6-dimethoxyphenyl)(3,4-dimethoxyphenyl)methanone (7)] displayed an IC50 of 174 µM.

Consider `COc1cc(Br)c(C(=O)c2c(Br)c(Br)cc(OC)c2OC)cc1OC` [(2-Bromo-4,5-dimethoxyphenyl)(2,3-dibromo-5,6-dimethoxyphenyl)methanone (8)], for which the IC50 stood at 123 µM.

Compound `COc1ccc(C(=O)c2cccc(OC)c2OC)cc1OC` [(2,3-dimethoxyphenyl)(3,4-dimethoxyphenyl)methanone (6)] came in with an IC50 of 1210 µM.

The compound `O=C(c1ccc(O)c(O)c1)c1c(O)c(O)cc(Br)c1Br` [(2,3-Dibromo-5,6-dihydroxyphenyl)(3,4-dihydroxyphenyl)methanone (10)] registered an IC50 of 832 µM.

Take `O=C(c1cc(O)c(O)cc1Br)c1c(O)c(O)cc(Br)c1Br` [(2-Bromo-4,5-dihydroxyphenyl)(2,3-dibromo-5,6-dihydroxyphenyl)methanone (11)]: the IC50 was determined as 1110 µM.

`O=C(c1cc(O)c(O)c(Br)c1)c1c(O)c(O)cc(Br)c1Br` [(3-Bromo-4,5-dihydroxyphenyl)(2,3-dibromo-5,6-dihydroxyphenyl)methanone (12)] showed a half-inhibitory concentration (IC50) of 701 µM.

The term IC50 denotes the concentration needed to halve the response being measured. Lower therefore signals inhibition by little substance.
